# Reference: the NIST ThermoML archive (doi:10.1016/j.jct.2010.02.009)
# ± gives the expanded uncertainty stated by the source.
# What was measured:
# [1] = refractive index (other wavelength) (dimensionless); details: 101 kPa, Liquid, Wavelength=632.8 nm, Standard Abbe refractometry
# [2] = refractive index (other wavelength) (dimensionless); xn = mol fraction of the nth substance listed; details: 101 kPa, Liquid, Wavelength=632.8 nm, Standard Abbe refractometry, x2 = 0
structure (smiles),measurement,setting,value
N#Cc1ccccc1 [benzonitrile],refractive index,[1]; 278.24 K,1.5324 ± 0.0008
same,refractive index,[1]; 279.25 K,1.5319 ± 0.0008
same,refractive index,[1]; 281.33 K,1.5308 ± 0.0008
same,refractive index,[1]; 282.96 K,1.5301 ± 0.0008
same,refractive index,[1]; 284.3 K,1.5294 ± 0.0008
same,refractive index,[1]; 285.43 K,1.5288 ± 0.0008
CCCCCCCCC [nonane],refractive index,[1]; 278.08 K,1.4111 ± 0.0008
same,refractive index,[1]; 279.19 K,1.4106 ± 0.0008
same,refractive index,[1]; 280.4 K,1.4101 ± 0.0008
same,refractive index,[1]; 281.48 K,1.4095 ± 0.0008
same,refractive index,[1]; 282.59 K,1.409 ± 0.0008
same,refractive index,[1]; 283.65 K,1.4085 ± 0.0008
same,refractive index,[1]; 284.91 K,1.4079 ± 0.0008
CCCCCCCCC [nonane] + N#Cc1ccccc1,refractive index,[2]; 278.08 K,1.4111 ± 0.0008
same,refractive index,[2]; 279.19 K,1.4106 ± 0.0008
same,refractive index,[2]; 280.4 K,1.4101 ± 0.0008
same,refractive index,[2]; 281.48 K,1.4095 ± 0.0008
same,refractive index,[2]; 282.59 K,1.409 ± 0.0008
same,refractive index,[2]; 283.65 K,1.4085 ± 0.0008
same,refractive index,[2]; 284.91 K,1.4079 ± 0.0008
